In publication PMC6274642, “Small molecule inhibitors reveal allosteric regulation of USP14 via steric blockade” (Cell Research, 2018):

What was measured:
IsoT = target: T1, IsoT (Homo sapiens, UniProt P45974); assay: Ub-AMC hydrolysis assay, IsoT; format: biochemical; settings: 1 μM Ub-AMC, 10 nM IsoT
T1 construct: made in house
T1 sequence (P45974 1-858): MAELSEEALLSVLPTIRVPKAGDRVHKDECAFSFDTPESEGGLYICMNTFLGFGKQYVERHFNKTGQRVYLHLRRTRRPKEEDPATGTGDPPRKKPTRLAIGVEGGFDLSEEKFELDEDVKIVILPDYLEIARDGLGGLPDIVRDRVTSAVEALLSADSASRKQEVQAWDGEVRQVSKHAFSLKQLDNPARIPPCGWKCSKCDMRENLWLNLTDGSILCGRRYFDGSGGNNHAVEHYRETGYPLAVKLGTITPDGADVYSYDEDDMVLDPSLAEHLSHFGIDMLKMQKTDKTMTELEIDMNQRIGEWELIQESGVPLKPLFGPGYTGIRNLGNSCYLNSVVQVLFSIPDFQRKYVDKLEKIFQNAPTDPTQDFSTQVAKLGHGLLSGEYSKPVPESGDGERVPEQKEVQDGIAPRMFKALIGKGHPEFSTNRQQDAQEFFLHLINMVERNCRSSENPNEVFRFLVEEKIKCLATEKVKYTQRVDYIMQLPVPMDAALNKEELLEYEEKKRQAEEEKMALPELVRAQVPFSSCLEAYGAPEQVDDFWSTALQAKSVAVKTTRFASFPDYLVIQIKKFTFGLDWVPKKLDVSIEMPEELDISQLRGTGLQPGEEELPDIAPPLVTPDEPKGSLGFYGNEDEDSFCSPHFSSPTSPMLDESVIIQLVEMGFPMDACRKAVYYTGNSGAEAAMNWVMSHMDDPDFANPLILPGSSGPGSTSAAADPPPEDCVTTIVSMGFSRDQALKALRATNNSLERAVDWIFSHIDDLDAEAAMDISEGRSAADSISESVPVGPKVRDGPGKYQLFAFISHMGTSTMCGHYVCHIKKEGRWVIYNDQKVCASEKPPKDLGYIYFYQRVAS
Excerpt: Ub-AMC hydrolysis activity of IsoT.

USP14 = target: T2, USP14 (Homo sapiens, UniProt P54578); assay: Kinetic analysis (Vm, Km) of Ub-AMC hydrolysis by USP14; format: biochemical; settings: Km varied, Vm unchanged with inhibitor concentration
T2 construct: Glutathione S-transferase (GST)-tagged full-length USP14; GST (N); made in house
Procedure: Menten plot of the concentration-dependence of Ub-AMC (1-48 μM) hydrolysis in the presence
The data were fit to a curve by nonlinear regression
(§1) (1 picture or pasted object on this page, not shown here)

Solubility = format: physicochemical; settings: qualitative
USP14 H426E [1] = target: T3, USP14 H426E (Homo sapiens, UniProt P54578, H426E); assay: In vitro Ub-PA assay, USP14 H426E mutant; format: binding; set-up: catalytic domain (residues 96–494) of USP14 were cloned into the pGEX-6P-1 vector; GST (N); made in house
Target sequence in this assay (P54578 96-494 H426E): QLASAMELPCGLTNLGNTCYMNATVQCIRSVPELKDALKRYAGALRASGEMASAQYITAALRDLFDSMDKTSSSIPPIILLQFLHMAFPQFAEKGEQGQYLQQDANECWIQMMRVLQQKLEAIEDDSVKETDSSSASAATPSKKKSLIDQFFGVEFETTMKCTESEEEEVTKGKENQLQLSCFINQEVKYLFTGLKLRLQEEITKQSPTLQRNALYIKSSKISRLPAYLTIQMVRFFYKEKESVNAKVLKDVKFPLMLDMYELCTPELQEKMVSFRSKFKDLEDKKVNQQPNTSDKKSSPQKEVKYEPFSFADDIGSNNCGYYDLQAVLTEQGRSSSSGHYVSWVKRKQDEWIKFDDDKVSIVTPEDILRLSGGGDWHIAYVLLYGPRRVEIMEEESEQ

USP14 Y436A [2] = target: T4, USP14 Y436A (Homo sapiens, UniProt P54578, Y436A); assay: In vitro Ub-PA assay, USP14 Y436A mutant; format: binding; set-up: catalytic domain (residues 96–494) of USP14 were cloned into the pGEX-6P-1 vector; GST (N); made in house
Target sequence in this assay (P54578 96-494 Y436A): as the sequence (P54578 96-494 H426E) above, with E331H, Y341A counted along it

USP14 Y476A = target: T5, USP14 Y476A (Homo sapiens, UniProt P54578, Y476A); assay: Ub-AMC hydrolysis assay, USP14 Y476A mutant; format: biochemical; settings: 15 μM compound
T5 construct: Glutathione S-transferase (GST)-tagged full-length USP14; GST (N); made in house
Excerpt: (§2) Supplementary information, Fig. S3 Structural and biochemical analyses of the three […]
(§3) (a) H426 of USP14 forms a hydrogen bind with R74 of Ub, while Y476 forms a hydrogen bound with D199. (b) The Y476K, Y476R and D199A point mutations all abolish the formation of USP14/Ub-PA complex. The result was visualized by SDS-PAGE and Coomassie blue staining. (c-f) Linear kinetics of Ub-AMC hydrolysis by USP14 WT, H426E, Y436A and […]
(§4) curves have R2>0.99. Error bars represent SDs.
as §1

USP14^CAT = target: T6, USP14^CAT (Homo sapiens, UniProt P54578); assay: In vitro Ub-PA assay, USP14^CAT; format: binding; settings: 5 mM compound, 3 μM USP14^CAT, preincubation 1 h 25 °C, 12 μM Ub-PA
T6 construct: catalytic domain (residues 96–494) of USP14 were cloned into the pGEX-6P-1 vector; GST (N, cleaved yes); made in house
Procedure: All the results were visualized by SDS-PAGE and Coomassie blue staining. Ub-PA ubiquitin-propargylamide
We then turned to the biochemical Ub-PA (ubiquitin-propargylamide) assay. […] The covalent attachment of Ub-PA (8 kD) to USP14^CAT (45 kD) produced the novel USP14/Ub-PA complex with an increased molecular weight (53 kD).
(§5) For Ub-PA binding, 3 μM DUB protein (USP14^CAT, USP7^CAT, UCH-L1, or UCH-L3) was mixed with 12 μM Ub-PA for at least 1 h at room temperature in a reaction system containing 25 mM Tris-HCl (pH 7.5) and 150 mM NaCl. […] The DMSO concentration should be no more than 10% (v/v). All the samples were analyzed by SDS-PAGE, and the results are shown.

USP7 = target: T7, USP7 (Homo sapiens, UniProt Q93009); assay: In vitro Ub-PA assay, USP7; format: binding; settings: 5 mM compound, 3 μM DUB protein, 12 μM Ub-PA
T7 construct: 3 μM DUB protein (USP14^CAT, USP7^CAT, UCH-L1, or UCH-L3); made in house
Procedure: (§6) Linear kinetics of Ub-AMC hydrolysis are shown on the left, and the results of the statistical analysis are shown on the right. […] Error bars represent SDs. […] All the results were visualized by SDS-PAGE and Coomassie blue staining
as §5

UCH-L1 = target: T8, UCH-L1 (Homo sapiens, UniProt P09936); assay: In vitro Ub-PA assay, UCH-L1; format: binding; settings: 5 mM compound, 3 μM DUB protein, 12 μM Ub-PA
T8 construct: made in house
T8 sequence (P09936 1-223): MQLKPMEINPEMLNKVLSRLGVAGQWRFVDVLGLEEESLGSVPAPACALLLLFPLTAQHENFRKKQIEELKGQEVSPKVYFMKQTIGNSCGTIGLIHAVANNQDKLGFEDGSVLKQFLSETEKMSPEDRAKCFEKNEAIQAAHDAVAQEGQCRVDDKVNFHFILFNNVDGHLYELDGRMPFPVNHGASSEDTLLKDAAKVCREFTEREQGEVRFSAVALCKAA
Procedure: as §6, §5

UCH-L3 = target: T9, UCH-L3 (Homo sapiens, UniProt P15374); assay: In vitro Ub-PA assay, UCH-L3; format: binding; settings: 5 mM compound, 3 μM DUB protein, 12 μM Ub-PA
T9 construct: made in house
T9 sequence (P15374 1-230): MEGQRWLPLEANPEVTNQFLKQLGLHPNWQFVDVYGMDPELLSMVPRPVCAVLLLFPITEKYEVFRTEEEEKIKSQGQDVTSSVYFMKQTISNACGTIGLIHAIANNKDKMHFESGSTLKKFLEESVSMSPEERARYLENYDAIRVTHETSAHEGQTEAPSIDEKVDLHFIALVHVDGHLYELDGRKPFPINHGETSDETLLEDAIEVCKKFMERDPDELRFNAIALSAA
Procedure: as §6, §5

USP7 F409A = target: T10, USP7 F409A (Homo sapiens, UniProt Q93009, F409A); assay: Ub-AMC hydrolysis assay, USP7 F409A; format: biochemical; settings: 100 μM compound
T10 construct: made in house
Excerpt: To explain the selectivity of IU1, we first compared the sequence conservation among the USP family. USP14 shares homology with USP2, IsoT, USP7, and USP15, ranging from 28% to 35%, in the catalytic domain. […] First, we compared the structure of USP14^CAT-IU1 with that of apo USP7 (Fig. 3a, b). H426 and Y436 in USP14 aligned well with the corresponding residues in USP7. […] Consistent with this scenario, when we compared the primary sequence and structure of USP14^CAT-IU1 with UCH-L1 and UCH-L3, neither the primary sequence nor the structure of USP14 aligned well with UCH-L1 or UCH-L3 (Fig. 3e, f).
as §6

USP14 H426E [3] = target: T3, USP14 H426E; assay: Ub-AMC hydrolysis assay, USP14 H426E mutant; format: biochemical; set-up: Glutathione S-transferase (GST)-tagged full-length USP14; GST (N); made in house; settings: 15 μM compound
Excerpt: as §2, §3, §4, §1

USP14 Y436A [4] = target: T4, USP14 Y436A; assay: Ub-AMC hydrolysis assay, USP14 Y436A mutant; format: biochemical; set-up: Glutathione S-transferase (GST)-tagged full-length USP14; GST (N); made in house; settings: 15 μM compound
Excerpt: as §2, §3, §4, §1

proteasome-bound USP14 = proteasome-bound USP14 (Homo sapiens, UniProt P54578); assay: Ub-AMC hydrolysis assay, proteasome-activated USP14
Procedure: It was used to measure the deubiquitinating activity of USP14 variants. The deubiquitination assay was performed by following a published protocol.[7] […] To start the reaction, 1 μM Ub-AMC was added to the system. […] Fluorescence intensity was recorded every 30 s for 15 min. Each experiment was repeated three times, and the average value was calculated.
curves for small-molecule-mediated inhibition of the Ub-AMC hydrolysis activity of
1 nM proteasome. (d-f) Dose-response curves for small-molecule-mediated inhibition of the
Ub-AMC hydrolysis activity of IsoT. The reaction system contained 1 μM Ub-AMC and 10
nM IsoT. All the values correspond to the averages of triplicate experiments.

T6 sequence (P54578 96-494): as the sequence (P54578 96-494 H426E) above, with E331H counted along it
T7 sequence (Q93009 214-521 limits assumed): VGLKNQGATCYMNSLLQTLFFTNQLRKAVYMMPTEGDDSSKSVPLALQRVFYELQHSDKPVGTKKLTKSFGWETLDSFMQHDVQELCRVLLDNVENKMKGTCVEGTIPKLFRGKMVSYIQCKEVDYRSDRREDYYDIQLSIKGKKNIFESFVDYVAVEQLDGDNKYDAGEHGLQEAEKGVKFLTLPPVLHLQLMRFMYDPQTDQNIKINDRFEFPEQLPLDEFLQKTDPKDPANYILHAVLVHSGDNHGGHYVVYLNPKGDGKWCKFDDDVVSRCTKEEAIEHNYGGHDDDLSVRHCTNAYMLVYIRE
T10 sequence (Q93009 whole entry F409A): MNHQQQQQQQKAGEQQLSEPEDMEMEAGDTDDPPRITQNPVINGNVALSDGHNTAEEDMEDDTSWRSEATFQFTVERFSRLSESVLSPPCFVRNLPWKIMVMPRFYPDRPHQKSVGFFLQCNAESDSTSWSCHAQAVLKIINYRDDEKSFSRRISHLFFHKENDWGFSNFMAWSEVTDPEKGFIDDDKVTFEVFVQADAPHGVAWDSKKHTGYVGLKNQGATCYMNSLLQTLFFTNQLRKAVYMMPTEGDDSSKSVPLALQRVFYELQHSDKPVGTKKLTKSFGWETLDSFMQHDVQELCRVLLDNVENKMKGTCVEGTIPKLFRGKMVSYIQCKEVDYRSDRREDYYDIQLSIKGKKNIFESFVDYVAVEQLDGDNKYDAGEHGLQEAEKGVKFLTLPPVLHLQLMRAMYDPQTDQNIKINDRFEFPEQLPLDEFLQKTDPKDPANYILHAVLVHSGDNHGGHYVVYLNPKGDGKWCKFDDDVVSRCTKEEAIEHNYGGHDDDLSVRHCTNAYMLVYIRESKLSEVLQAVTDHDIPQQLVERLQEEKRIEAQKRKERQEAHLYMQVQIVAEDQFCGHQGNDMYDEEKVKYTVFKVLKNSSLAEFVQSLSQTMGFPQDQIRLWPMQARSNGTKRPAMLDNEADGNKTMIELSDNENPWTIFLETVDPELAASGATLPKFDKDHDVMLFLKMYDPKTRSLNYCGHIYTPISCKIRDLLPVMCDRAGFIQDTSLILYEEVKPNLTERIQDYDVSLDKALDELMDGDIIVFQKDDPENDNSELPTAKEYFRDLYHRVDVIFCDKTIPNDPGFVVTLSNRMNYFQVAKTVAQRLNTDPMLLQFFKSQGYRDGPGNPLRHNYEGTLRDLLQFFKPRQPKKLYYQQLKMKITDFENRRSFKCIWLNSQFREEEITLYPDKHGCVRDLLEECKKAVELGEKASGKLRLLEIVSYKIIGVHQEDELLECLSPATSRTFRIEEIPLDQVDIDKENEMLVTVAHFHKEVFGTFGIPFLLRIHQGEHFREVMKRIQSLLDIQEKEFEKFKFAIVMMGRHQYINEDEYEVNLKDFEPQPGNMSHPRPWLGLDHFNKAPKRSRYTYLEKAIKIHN

SMILES: Cc1cc(C(=O)CN2CCC(O)CC2)c(C)n1-c1ccc(C#N)cc1 [IU1-248, 1-[1-(4-cyanophenyl)-2,5-dimethyl-1H-pyrrol-3-yl]-2-(4-hydroxyl) piperidylethan-1-one]
- IC50 (IsoT): 21.5 µM
- Mode of inhibition of USP14 (USP14): competitive mechanism
- Solubility (Solubility): significantly improved solubility
- Inhibition of Ub-PA binding to USP14 H426E (USP14 H426E [1]; 2.5 mM IU1-248): abolished the inhibitory effect
- Inhibition of Ub-PA binding to USP14 Y436A (USP14 Y436A [2]; 2.5 mM IU1-248): abolished the inhibitory effect

SMILES: Cc1cc(C(=O)CN2CCCC2)c(C)n1-c1ccc(F)cc1 [IU1]
- IC50 (IsoT): 143 µM
- Mode of inhibition of USP14 (USP14): competitive inhibitor
- Inhibition of Ub-AMC hydrolysis activity of USP14 Y476A (USP14 Y476A): no inhibition
- Inhibition of formation of USP14/Ub-PA complex (USP14^CAT): significantly inhibited
- Inhibition of binding of Ub-PA to USP7 (USP7): did not inhibit
- Inhibition of binding of Ub-PA to UCH-L1 (UCH-L1): did not inhibit
- Inhibition of binding of Ub-PA to UCH-L3 (UCH-L3): did not inhibit
- Effect on Ub-AMC hydrolysis activity of USP7 F409A (USP7 F409A): decreased
- Solubility (Solubility): poor solubility
- Inhibition of Ub-AMC hydrolysis activity of USP14 H426E (USP14 H426E [3]): no inhibition
- Inhibition of Ub-AMC hydrolysis activity of USP14 Y436A (USP14 Y436A [4]): no inhibition
- Inhibition of Ub-PA binding to USP14 H426E (USP14 H426E [1]; 5 mM IU1): could not be inhibited
- Inhibition of Ub-PA binding to USP14 Y436A (USP14 Y436A [2]; 5 mM IU1): could not be inhibited

SMILES: Cc1cc(C(=O)CN2CCCCC2)c(C)n1-c1ccc(Cl)cc1 [IU1-47]
- IC50 (IsoT): 29.1 µM
- IsoT/USP14 (proteasome-bound USP14; ratio of IC50 values IsoT/USP14): 42.85
- IC50 (proteasome-bound USP14; read-out: IC50 USP14, 1 μM Ub-AMC, 15 nM USP14, 1 nM proteasome): 0.68 µM
